The values that follow come from ChEMBL document CHEMBL4043204, “meso-Dihydroguaiaretic acid derivatives with antibacterial and antimycobacterial activity” (Bioorg Med Chem, 2017).

For one data set, the system named is Acinetobacter baumannii. Description: Antibacterial activity against carbapenem-resistant Acinetobacter baumannii (12-666) assessed as inhibition of microbial growth up to 50 ug/ml incubated for 24 hrs by microdilution assay. The class given is functional. Background: Dilution methods test growth across graded concentrations, often in twofold steps.
The subject of data set [1] is Escherichia coli. Kind of data set: Antibacterial activity against extended-spectrum beta-lactamase-positive Escherichia coli (14-2081) assessed as inhibition of microbial growth up to 50 ug/ml incubated for 24 hrs by microdilution assay. Format: functional.
Data set [2] concerns Escherichia coli. Description: Antibacterial activity against oxacillin-resistant Escherichia coli OXA-48 assessed as inhibition of microbial growth up to 50 ug/ml incubated for 24 hrs by microdilution assay. The class given is functional.
For the next data set, the system named is Pseudomonas aeruginosa. Description: Antibacterial activity against carbapenem-resistant Pseudomonas aeruginosa (13-1391) assessed as inhibition of microbial growth up to 50 ug/ml incubated for 48 hrs by microdilution assay. The class given is functional.
Data set [3] concerns Klebsiella pneumoniae. Kind of data set: Antibacterial activity against NDM-1 positive Klebsiella pneumoniae (14-3335) assessed as inhibition of microbial growth up to 50 ug/ml incubated for 24 hrs by microdilution assay. Format: functional.
For data set [4], the system named is Klebsiella pneumoniae. Kind of data set: Antibacterial activity against extended-spectrum beta-lactamase-positive Klebsiella pneumoniae (14-2081) assessed as inhibition of microbial growth up to 50 ug/ml incubated for 24 hrs by microdilution assay. Format: functional.
For another data set, the system named is Providencia rettgeri. Kind of data set: Antibacterial activity against NDM-1 positive Providencia rettgeri assessed as inhibition of microbial growth up to 50 ug/ml incubated for 24 hrs by microdilution assay. The class given is functional.
Data set [5] has as its system Stenotrophomonas maltophilia. Kind of data set: Antibacterial activity against trimethoprim-sulfamethoxazole-resistant Stenotrophomonas maltophilia assessed as inhibition of microbial growth up to 50 ug/ml incubated for 24 hrs by microdilution assay. Format: functional.
Another data set relates to Vero. Kind of data set: Cytotoxicity against African green monkey Vero cells assessed as reduction in cell viability incubated for 24 hrs by trypan blue staining based assay. To be noted: Chlorocebus sabaeus.
The subject of data set [6] is Mycobacterium tuberculosis. Description: Antimycobacterial activity against Mycobacterium tuberculosis H37Rv ATCC 27294 assessed as inhibition of mycobacterial growth incubated for 2 weeks by MABA method. Format: functional. The conditions noted are these: for MIC: Mycobacterium tuberculosis, H37Rv ATCC 27294, 336 h.
Data set [7] is described as follows: Selectivity index, ratio of IC50 for cytotoxicity against African green monkey Vero cells to MIC for Mycobacterium tuberculosis H37Rv ATCC 27294. The conditions noted are these: read-out: Selectivity Index. The class given is toxicity, cell-based.

In general, IC50 refers to the concentration that gives 50% inhibition. A word on the MIC: it is the lowest concentration found to suppress growth.

Values after ≈ are worked out from the molar mass of the structure shown. Active and inactive are the calls of the source. No cut-off for these calls is given here.

On to `COc1cc(C[C@@H](C)[C@@H](C)Cc2ccc(OC(C)=O)c(OC)c2)ccc1OC(C)=O`, for which the result with Acinetobacter baumannii, in the data set with Escherichia coli [1], in the data set on Escherichia coli [2], with Pseudomonas aeruginosa, in the data set on Klebsiella pneumoniae [3] and in the data set on Klebsiella pneumoniae [4] was inactive. For the same molecule, the result (with Providencia rettgeri; in [5]) was inactive. Besides, in the data set with Vero, the 50% inhibitory concentration (IC50) was 95.1 mg/L (≈ 230 µM). Moreover, the “-logMIC” value in [6] is 4.23. Besides, the MIC in data set [6] turned out to be 50 mg/L (≈ 121 µM). For the same molecule, the selectivity ratio in [7] worked out at 1.9.
`COc1cc(C[C@@H](C)[C@@H](C)Cc2ccc(OCCN3CCCC3)c(OC)c2)ccc1OCCN1CCCC1`: the outcome in the data set with Acinetobacter baumannii, with Escherichia coli [1], in the data set with Escherichia coli [2], with Pseudomonas aeruginosa, with Klebsiella pneumoniae [3] and in the data set on Klebsiella pneumoniae [4] was inactive. Also, the result (in the data set on Providencia rettgeri; in [5]) was inactive. In addition, in the data set on Vero, the IC50 is above 487 mg/L. In addition, the MIC in data set [6] came to 25 mg/L (≈ 47.6 µM). For the same molecule, in [7], the selectivity ratio was above 19.5.
On to `COc1cc(C[C@@H](C)[C@@H](C)Cc2ccc(OC(=O)c3cccnc3)c(OC)c2)ccc1OC(=O)c1cccnc1`, for which the result in the data set with Acinetobacter baumannii, in the data set with Escherichia coli [1], in the data set with Escherichia coli [2], in the data set with Pseudomonas aeruginosa, in the data set with Klebsiella pneumoniae [3] and in the data set with Klebsiella pneumoniae [4] was inactive. Besides, the result (with Providencia rettgeri; in data set [5]) was inactive. In the data set on Vero, the IC50 was determined as 36.3 mg/L (≈ 67.1 µM). The “-logMIC” value in data set [6] is 4.2. In data set [6], the MIC turned out to be 12.5 mg/L (≈ 23.1 µM). In addition, the selectivity ratio in data set [7] worked out at 2.9.
Regarding `COc1cc(C[C@@H](C)[C@@H](C)Cc2ccc(OCCN(C)C)c(OC)c2)ccc1OCCN(C)C`, the outcome with Acinetobacter baumannii, in the data set on Escherichia coli [1], in the data set with Escherichia coli [2], with Pseudomonas aeruginosa, in the data set on Klebsiella pneumoniae [3] and with Klebsiella pneumoniae [4] was inactive. Moreover, the result (in the data set with Providencia rettgeri; in data set [5]) was inactive. Further, in the data set with Vero, the IC50 was above 487 mg/L. Besides, the “-logMIC” value in data set [6] turned out to be 4.32. Also, in data set [6], the MIC turned out to be 6.25 mg/L (≈ 13.2 µM). The selectivity ratio in data set [7] was above 77.9.
`CCN(CC)CCOc1ccc(C[C@@H](C)[C@@H](C)Cc2ccc(OCCN(CC)CC)c(OC)c2)cc1OC`: the outcome in the data set on Acinetobacter baumannii, in the data set with Escherichia coli [1], in the data set on Escherichia coli [2], with Pseudomonas aeruginosa, in the data set with Klebsiella pneumoniae [3] and with Klebsiella pneumoniae [4] was inactive. Moreover, the result (with Providencia rettgeri; in [5]) was inactive. For the same molecule, the IC50 in the data set on Vero stood at 36.2 mg/L (≈ 68.5 µM). In addition, the “-logMIC” value in data set [6] worked out at 4.55. For the same molecule, the MIC in data set [6] is 25 mg/L (≈ 47.3 µM). For the same molecule, in [7], the selectivity ratio stood at 1.45.
Take `COc1cc(C[C@@H](C)[C@@H](C)Cc2ccc(OC(=O)c3cnccn3)c(OC)c2)ccc1OC(=O)c1cnccn1`: the result in the data set with Acinetobacter baumannii, in the data set with Escherichia coli [1], in the data set on Escherichia coli [2], in the data set with Pseudomonas aeruginosa, in the data set with Klebsiella pneumoniae [3] and in the data set with Klebsiella pneumoniae [4] was inactive. Besides, the result (with Providencia rettgeri; in [5]) was inactive. Further, the “-logMIC” value in data set [6] amounted to 4.23. Moreover, the MIC in [6] came to 50 mg/L (≈ 92.2 µM).
Take `COc1cc(C[C@@H](C)[C@@H](C)Cc2ccc(OC(=O)c3ccc(Br)cc3)c(OC)c2)ccc1O` (racemic): the outcome with Acinetobacter baumannii, in the data set on Escherichia coli [1], in the data set on Escherichia coli [2], in the data set on Pseudomonas aeruginosa, in the data set with Klebsiella pneumoniae [3] and in the data set on Klebsiella pneumoniae [4] was inactive. Further, the outcome (in the data set with Providencia rettgeri; in data set [5]) was inactive. Further, in the data set with Vero, the IC50 was found to be 112 mg/L (≈ 217 µM). Further, the “-logMIC” value in data set [6] is 4.58. Further, in [6], the MIC was 12.5 mg/L (≈ 24.3 µM). In addition, in [7], the selectivity ratio was 8.93.
As to `COc1cc(C[C@@H](C)[C@@H](C)Cc2ccc(OC(=O)c3ccccc3[N+](=O)[O-])c(OC)c2)ccc1O` (racemic), the result in the data set on Acinetobacter baumannii, with Escherichia coli [1], in the data set with Escherichia coli [2], with Pseudomonas aeruginosa, in the data set with Klebsiella pneumoniae [3] and in the data set with Klebsiella pneumoniae [4] was inactive. Besides, the result (with Providencia rettgeri; in data set [5]) was inactive. For the same molecule, the IC50 in the data set on Vero was determined as 97.1 mg/L (≈ 202 µM). For the same molecule, the “-logMIC” value in [6] was found to be 3.94. Moreover, in data set [6], the MIC came to 12.5 mg/L (≈ 26.1 µM). The selectivity ratio in [7] is 7.76.
`COc1cc(C[C@@H](C)[C@@H](C)Cc2ccc(OCCN3CCCC3)c(OC)c2)ccc1O` (racemic): the outcome in the data set with Acinetobacter baumannii, in the data set on Escherichia coli [1], in the data set on Escherichia coli [2], in the data set with Pseudomonas aeruginosa, in the data set with Klebsiella pneumoniae [3] and in the data set with Klebsiella pneumoniae [4] was inactive. The outcome (in the data set with Providencia rettgeri; in [5]) was inactive. The IC50 in the data set with Vero is above 487 mg/L. In addition, the “-logMIC” value in data set [6] is 5.25. For the same molecule, the MIC in [6] came to 12.5 mg/L (≈ 29.2 µM). In addition, the selectivity ratio in [7] is above 39.
Regarding `COc1cc(C[C@@H](C)[C@@H](C)Cc2ccc(OC(=O)c3cccnc3)c(OC)c2)ccc1O` (racemic), the result in the data set with Acinetobacter baumannii, in the data set with Escherichia coli [1], with Escherichia coli [2], in the data set on Pseudomonas aeruginosa, in the data set with Klebsiella pneumoniae [3] and in the data set on Klebsiella pneumoniae [4] was inactive. Further, the result (in the data set with Providencia rettgeri; in data set [5]) was inactive. Besides, the IC50 with Vero was found to be 71.4 mg/L (≈ 164 µM). In data set [6], the “-logMIC” value stood at 4.05. Besides, the MIC in data set [6] was 50 mg/L (≈ 115 µM). Moreover, the selectivity ratio in [7] was found to be 1.43.
`COc1cc(C[C@@H](C)[C@@H](C)Cc2ccc(OCCN(C)C)c(OC)c2)ccc1O` (racemic): the outcome in the data set on Acinetobacter baumannii, in the data set on Escherichia coli [1], in the data set on Escherichia coli [2], in the data set on Pseudomonas aeruginosa, with Klebsiella pneumoniae [3] and in the data set on Klebsiella pneumoniae [4] was inactive. The result (with Providencia rettgeri; in data set [5]) was inactive. In addition, the IC50 in the data set with Vero was 327 mg/L (≈ 813 µM). Besides, in data set [6], the “-logMIC” value turned out to be 4.53. Moreover, the MIC in data set [6] was found to be 12.5 mg/L (≈ 31.1 µM). In addition, in [7], the selectivity ratio was determined as 26.1.
For the molecule `CC[C@@H](CO)NCCN[C@@H](CC)CO` [ETHAMBUTOL], the IC50 with Vero came out at 391 mg/L (≈ 1910 µM). For the same molecule, in data set [6], the MIC turned out to be 3.12 mg/L (≈ 15.3 µM). For the same molecule, in [7], the selectivity ratio was 125.
